Results from patent US9302999B2, “Substituted triazoles as herbicides” (E. I. DU PONT DE NEMOURS AND COMPANY, priority 2012, dated 2016).

Legend:
Format in all cases: in vivo
[1] = system: barnyardgrass (Echinochloa crus-galli); assay: Test B flooded paddy: barnyardgrass; details: Flood, applied to paddy water at 2-leaf stage, visually evaluated after 13 to 15 days
In short: (§1)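 2-leaf plants; pots flooded 3 cm over soil; compound added to paddy water, depth kept constant. Greenhouse 13–15 d. Visual rating vs controls, 0–100 scale (100 = complete control); dash = no result.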

[2] = system: ducksalad (Heteranthera limosa); assay: Test B flooded paddy: ducksalad; details: Flood, applied to paddy water at 2-leaf stage, visually evaluated after 13 to 15 days
In short: as §1

[3] = system: barnyardgrass (Echinochloa crus-galli); assay: Test A pre-/postemergence: barnyardgrass
In short: (§2)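 Injury is scored visually on a scale where 0 means no effect and 100 complete control, comparing treated with untreated plants after approximately ten greenhouse days. Both preemergence and postemergence applications are made at the same time.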

[4] = system: crabgrass, large (large crabgrass, Digitaria sanguinalis); assay: Test A pre-/postemergence: crabgrass, large
In short: as §2

corn (Zea mays) = assay: Test A pre-/postemergence: corn
In short: as §2

[5] = system: foxtail, giant (giant foxtail, Setaria faberii); assay: Test A pre-/postemergence: foxtail, giant
In short: as §2

[6] = system: wheat (Triticum aestivum); assay: Test A pre-/postemergence: wheat
In short: as §2

rice (Oryza sativa) = assay: Test B flooded paddy: rice; details: Flood, applied to paddy water at 2-leaf stage, visually evaluated after 13 to 15 days
In short: as §1

[7] = system: morningglory (Ipomoea spp.); assay: Test A pre-/postemergence: morningglory
In short: as §2

[8] = system: sedge, umbrella (small-flower umbrella sedge Cyperus difformis); assay: Test B flooded paddy: sedge, umbrella; details: Flood, applied to paddy water at 2-leaf stage, visually evaluated after 13 to 15 days
Experimental: Seeds selected from rice (Oryza sativa), sedge, umbrella (small-flower umbrella sedge Cyperus difformis), ducksalad (Heteranthera limosa), and barnyardgrass (Echinochloa crus-galli) were grown to the 2-leaf stage for testing. At time of treatment, test pots were flooded to 3 cm above the soil surface, treated by application of test compounds directly to the paddy water, and then maintained at that water depth for the duration of the test.
Treated plants and controls were maintained in a greenhouse for 13 to 15 days, after which time all species were compared to controls and visually evaluated. Plant response ratings, summarized in Table B, are based on a scale of 0 to 100 where 0 is no effect and 100 is complete control. A dash (-) response means no test result.

[9] = system: pigweed (Amaranthus retroflexus); assay: Test A pre-/postemergence: pigweed
In short: as §2

[10] = system: velvetleaf (Abutilon theophrasti); assay: Test A pre-/postemergence: velvetleaf
In short: as §2

[11] = Postemergence, 31 g ai/ha, visual rating on 0 to 100 scale (0 no effect, 100 complete control), approximately ten days
[12] = Postemergence, 125 g ai/ha, 0 to 100 scale, 0 is no effect, 100 is complete control
[13] = Preemergence, 31 g ai/ha, 0 to 100 scale, 0 is no effect, 100 is complete control
[14] = Preemergence, 125 g ai/ha, 0 to 100 scale (0 no effect, 100 complete control)
[15] = Postemergence, 500 g ai/ha, visual rating on 0 to 100 scale (0 no effect, 100 complete control), approximately ten days
[16] = Preemergence, 500 g ai/ha, 0 to 100 scale, 0 is no effect, 100 is complete control
[17] = Postemergence, 500 g ai/ha, 0 to 100 scale, 0 is no effect, 100 is complete control
[18] = Preemergence, 125 g ai/ha, 0 to 100 scale where 0 is no effect and 100 is complete control
[19] = Preemergence, 500 g ai/ha, 0 to 100 scale (0 no effect, 100 complete control)

COc1nn(-c2ccc(F)cc2)nc1Oc1ccnc(C(F)(F)F)c1 [Compound 34]
50: Plant response rating, Crabgrass, Large [4, 14]
75: Plant response rating, Ducksalad (0 to 100 scale, 0 is no effect, 100 is complete control) ([2]; 250 g ai/ha)
0: Barnyardgrass plant response rating [3, 11] | Plant response rating, Barnyardgrass [3, 13] | Plant response rating, Barnyardgrass [3, 14] | Plant response rating, Crabgrass, Large [4, 13] | Plant response rating, Corn (corn (Zea mays); [13]) | Plant response rating, Corn (corn (Zea mays); [14]) | Plant response rating, Foxtail, Giant [5, 13] | Wheat plant response rating [6, 11] | Wheat plant response rating [6, 12] | Plant response rating, Wheat [6, 13] | Plant response rating, Wheat [6, 14] | Plant response rating, Morningglory [7, 13] | Plant response rating, Morningglory [7, 14] | Plant response rating, Pigweed [9, 13] | Velvetleaf plant response rating [10, 11] | Plant response rating, Velvetleaf [10, 13] | Plant response rating, Velvetleaf [10, 14]
10: Barnyardgrass plant response rating [3, 12] | Crabgrass, Large plant response rating [4, 11] | Corn plant response rating (corn (Zea mays); [11]) | Corn plant response rating (corn (Zea mays); [12]) | Foxtail, Giant plant response rating [5, 11] | Plant response rating, Pigweed [9, 14] | Velvetleaf plant response rating [10, 12]
35: Plant response rating, Rice (0 to 100 scale, 0 is no effect, 100 is complete control) (rice (Oryza sativa); 250 g ai/ha)
90: Plant response rating, Sedge, Umbrella (0 to 100 scale, 0 is no effect, 100 is complete control) ([8]; 250 g ai/ha)
80: Pigweed plant response rating [9, 12]
20: Crabgrass, Large plant response rating [4, 12] | Foxtail, Giant plant response rating [5, 12] | Morningglory plant response rating [7, 11] | Pigweed plant response rating [9, 11]
30: Plant response rating, Foxtail, Giant [5, 14] | Morningglory plant response rating [7, 12]
65: Plant response rating, Barnyardgrass (0 to 100 scale, 0 is no effect, 100 is complete control) ([1]; 250 g ai/ha)

Cc1nn(-c2ccccc2Cl)nc1C(=O)c1cccc(C(F)(F)F)c1 [Compound 5]
10: Pigweed plant response rating [9, 12]
0: Plant response rating, Barnyardgrass (0 to 100 scale, 0 is no effect, 100 is complete control) ([1]; 250 g ai/ha) | Plant response rating, Ducksalad (0 to 100 scale, 0 is no effect, 100 is complete control) ([2]; 250 g ai/ha) | Barnyardgrass plant response rating [3, 12] | Barnyardgrass plant response rating [3, 15] | Plant response rating, Barnyardgrass [3, 14] | Plant response rating, Barnyardgrass [3, 16] | Crabgrass, Large plant response rating [4, 12] | Crabgrass, Large plant response rating [4, 15] | Plant response rating, Crabgrass, Large [4, 14] | Plant response rating, Crabgrass, Large [4, 16] | Corn plant response rating (corn (Zea mays); [12]) | Corn plant response rating (corn (Zea mays); [15]) | Plant response rating, Corn (corn (Zea mays); [14]) | Plant response rating, Corn (corn (Zea mays); [16]) | Foxtail, Giant plant response rating [5, 12] | Foxtail, Giant plant response rating [5, 15] | Plant response rating, Foxtail, Giant [5, 14] | Plant response rating, Foxtail, Giant [5, 16] | Wheat plant response rating [6, 12] | Wheat plant response rating [6, 15] | Plant response rating, Wheat [6, 14] | Plant response rating, Wheat [6, 16] | Plant response rating, Rice (0 to 100 scale, 0 is no effect, 100 is complete control) (rice (Oryza sativa); 250 g ai/ha) | Morningglory plant response rating [7, 12] | Morningglory plant response rating [7, 15] | Plant response rating, Morningglory [7, 14] | Plant response rating, Morningglory [7, 16] | Plant response rating, Sedge, Umbrella (0 to 100 scale, 0 is no effect, 100 is complete control) ([8]; 250 g ai/ha) | Plant response rating, Pigweed [9, 14] | Plant response rating, Pigweed [9, 16] | Velvetleaf plant response rating [10, 12] | Velvetleaf plant response rating [10, 15] | Plant response rating, Velvetleaf [10, 14] | Plant response rating, Velvetleaf [10, 16]
30: Pigweed plant response rating [9, 15]

Cc1nn(-c2ccccc2)nc1C(=O)c1cccc(C(F)(F)F)c1 [Compound 43]
90: Plant response rating, Foxtail, Giant [5, 16]
40: Crabgrass, Large plant response rating [4, 15] | Morningglory plant response rating [7, 15]
10: Barnyardgrass plant response rating [3, 12] | Plant response rating, Corn (corn (Zea mays); [16])
100: Plant response rating, Sedge, Umbrella (0 to 100 scale, 0 is no effect, 100 is complete control) ([8]; 250 g ai/ha)
60: Plant response rating, Pigweed [9, 16]
30: Crabgrass, Large plant response rating [4, 12] | Plant response rating, Crabgrass, Large [4, 14] | Corn plant response rating (corn (Zea mays); [15]) | Foxtail, Giant plant response rating [5, 15] | Wheat plant response rating [6, 15]
85: Plant response rating, Ducksalad (0 to 100 scale, 0 is no effect, 100 is complete control) ([2]; 250 g ai/ha)
20: Barnyardgrass plant response rating [3, 15] | Plant response rating, Barnyardgrass [3, 16] | Corn plant response rating (corn (Zea mays); [12]) | Foxtail, Giant plant response rating [5, 12] | Plant response rating, Foxtail, Giant [5, 14] | Velvetleaf plant response rating [10, 12] | Velvetleaf plant response rating [10, 15]
50: Pigweed plant response rating [9, 12] | Plant response rating, Pigweed [9, 14]
80: Plant response rating, Crabgrass, Large [4, 16]
0: Plant response rating, Barnyardgrass (0 to 100 scale, 0 is no effect, 100 is complete control) ([1]; 250 g ai/ha) | Plant response rating, Barnyardgrass [3, 14] | Plant response rating, Corn (corn (Zea mays); [14]) | Wheat plant response rating [6, 12] | Plant response rating, Wheat [6, 14] | Plant response rating, Wheat [6, 16] | Plant response rating, Rice (0 to 100 scale, 0 is no effect, 100 is complete control) (rice (Oryza sativa); 250 g ai/ha) | Morningglory plant response rating [7, 12] | Plant response rating, Velvetleaf [10, 14] | Plant response rating, Velvetleaf [10, 16]
70: Pigweed plant response rating [9, 15]

CCc1nn(-c2ccc(F)cc2F)nc1Oc1ccnc(C(F)(F)F)c1 [Compound 178]
30: Plant response rating, Ducksalad (0 to 100 scale, 0 is no effect, 100 is complete control) ([2]; 125 g ai/ha) | Plant response rating, Barnyardgrass [3, 12] | Corn plant response rating (corn (Zea mays); [17])
100: Plant response rating, Barnyardgrass [3, 19] | Plant response rating, Crabgrass, Large [4, 19] | Plant response rating, Foxtail, Giant [5, 19] | Morningglory plant response rating [7, 17] | Plant response rating, Pigweed [9, 12] | Pigweed plant response rating [9, 17] | Plant response rating, Pigweed [9, 18] | Plant response rating, Pigweed [9, 19] | Velvetleaf plant response rating [10, 17]
90: Plant response rating, Crabgrass, Large [4, 12] | Crabgrass, Large plant response rating [4, 17] | Plant response rating, Crabgrass, Large [4, 18] | Foxtail, Giant plant response rating [5, 17] | Plant response rating, Foxtail, Giant [5, 18] | Plant response rating, Morningglory [7, 12]
80: Barnyardgrass plant response rating [3, 17]
40: Wheat plant response rating [6, 17]
10: Plant response rating, Corn (corn (Zea mays); [19]) | Plant response rating, Wheat [6, 19] | Plant response rating, Velvetleaf [10, 18]
0: Plant response rating, Barnyardgrass (0 to 100 scale, 0 is no effect, 100 is complete control) ([1]; 125 g ai/ha) | Plant response rating, Corn (corn (Zea mays); [18]) | Plant response rating, Wheat [6, 18] | Plant response rating, Morningglory [7, 18]
20: Plant response rating, Barnyardgrass [3, 18] | Plant response rating, Corn (corn (Zea mays); [12]) | Plant response rating, Wheat [6, 12] | Plant response rating, Rice (0 to 100 scale, 0 is no effect, 100 is complete control) (rice (Oryza sativa); 125 g ai/ha)
60: Plant response rating, Foxtail, Giant [5, 12] | Plant response rating, Morningglory [7, 19] | Plant response rating, Sedge, Umbrella (0 to 100 scale, 0 is no effect, 100 is complete control) ([8]; 125 g ai/ha) | Plant response rating, Velvetleaf [10, 12] | Plant response rating, Velvetleaf [10, 19]

CC(C)(C)c1nn(-c2ccc(F)cc2)nc1C(=O)c1ccnc(C(F)(F)F)c1 [Compound 175]
0: Plant response rating, Barnyardgrass (0 to 100 scale, 0 is no effect, 100 is complete control) ([1]; 125 g ai/ha) | Plant response rating, Ducksalad (0 to 100 scale, 0 is no effect, 100 is complete control) ([2]; 125 g ai/ha) | Plant response rating, Barnyardgrass [3, 12] | Barnyardgrass plant response rating [3, 17] | Plant response rating, Barnyardgrass [3, 18] | Plant response rating, Barnyardgrass [3, 19] | Plant response rating, Crabgrass, Large [4, 12] | Crabgrass, Large plant response rating [4, 17] | Plant response rating, Crabgrass, Large [4, 18] | Plant response rating, Crabgrass, Large [4, 19] | Plant response rating, Corn (corn (Zea mays); [12]) | Corn plant response rating (corn (Zea mays); [17]) | Plant response rating, Corn (corn (Zea mays); [18]) | Plant response rating, Corn (corn (Zea mays); [19]) | Plant response rating, Foxtail, Giant [5, 12] | Foxtail, Giant plant response rating [5, 17] | Plant response rating, Foxtail, Giant [5, 18] | Plant response rating, Foxtail, Giant [5, 19] | Plant response rating, Wheat [6, 12] | Wheat plant response rating [6, 17] | Plant response rating, Wheat [6, 18] | Plant response rating, Wheat [6, 19] | Plant response rating, Rice (0 to 100 scale, 0 is no effect, 100 is complete control) (rice (Oryza sativa); 125 g ai/ha) | Plant response rating, Morningglory [7, 12] | Morningglory plant response rating [7, 17] | Plant response rating, Morningglory [7, 18] | Plant response rating, Morningglory [7, 19] | Plant response rating, Sedge, Umbrella (0 to 100 scale, 0 is no effect, 100 is complete control) ([8]; 125 g ai/ha) | Plant response rating, Pigweed [9, 12] | Pigweed plant response rating [9, 17] | Plant response rating, Pigweed [9, 18] | Plant response rating, Pigweed [9, 19] | Plant response rating, Velvetleaf [10, 12] | Velvetleaf plant response rating [10, 17] | Plant response rating, Velvetleaf [10, 18] | Plant response rating, Velvetleaf [10, 19]
